# From patent US12102672B2, “Immunogenic sequences from a phage tail length tape measure protein, bacteria expressing the same and their use in treating a cancer” (INSTITUT GUSTAVE ROUSSY, priority 2017, dated 2024)
# “Also recorded” adds a separate entry of the source. Where no end group is shown, it is not given here.
# Legend:
# [1] = tested on: MCA205 cells with PSMB4 GSFARFRNI knock-in; test: Growth of Psmb4 knock-in MCA205 tumors under CTX +/- E. hirae 13144; format: in vivo, mice; settings: L→F exchange in position 3, versus WT MCA205
# splenic CD8+ T cells = test: IFNγ ELISpot recall assay of splenic CD8+ T cells with DCs pulsed with heat-inactivated bacteria or peptides; format: cell-based, mice; settings: for TC1 response against TMP1 in mice gavaged with the strain (IFNγ ELISpot): Example 12, FIG. 27E; for recall responses to TMP1, TMP2 and Group7 after in vivo immunization with the strain: Example 3, FIG. 13E
# Experimental: FIG. 9. Experimental immunization protocols to elucidate the immunogenicity of EH peptides. […] 5 days after the first oral gavage, mice are treated with CTX. One week post-CTX, CD8+ T cells are isolated from spleen. These CD8+ T cells are incubated with dendritic cells (DCs) pulsed with 20 μg/ml of peptides (during 1 hour) or with heat-inactivated bacteria (during 6 hours). Inactivation of bacteria consists in incubation at 65° C. during 2 hours. After 24 hours of culture, ELIspot of IFNγ is performed.
# FIG. 10. Cross-reactivity between the two E. hirae 708 and 13144 species for CTL splenic reactivity. Number of IFNγ spot representing IFNγ-secreting CD8+ T cells after co-culture with DCs pre-incubated with or without heat-inactivated bacteria (708, 13144, EH17 and L. plantarum).
# FIG. 13. Peptides from group 7 containing the TMP1 and TMP2 epitopes activate CD8+ T cells from spleen of mice immunized against E. hirae 13144. Number of IFNγ spot, representing IFNγ-secreting CD8+ T cells, after incubation with DCs pulsed with 13 different group of peptide (Table 6). Just group n° 1 (A) and group n° 7 (B) are shown. (C, E) Number of IFNγ spot, representing IFNγ-secreting CD8+ T cells, after incubation with DCs pulsed with 4 peptides belong to group n° 7 (in table 7). (D) Sequence alignment of TMP1 and TMP2 of EH10815 (SEQ ID Nos: 228 and 229 respectively) compared to EH13144 (fragments of SEQ ID NO: 1) at the level of immunogenic peptides. Amino acid sequence […] corresponds to SEQ ID No: 13. Amino acid sequence […] corresponds to SEQ ID No: 217. Amino acid sequence […] corresponds to SEQ ID Nos: 14. Amino acid sequence AlIEFIKGL corresponds to SEQ ID No: 218. (E) In vitro reactivity of splenic CTL in a recall response to TMP1 and TMP2 as well as Group7 after in vivo immunization with other strains of EH.
# (§1) A and C. Experimental setting. […] D-E. Ex vivo recall assays. […] Each dot represents one mouse.
# MCA-205 sarcoma [2] = test: MCA205 sarcoma growth in antibiotic-treated SPF C57BL/6 mice, CTX plus oral gavage with bacteria; format: in vivo; settings: ATB 3 days, CTX 100 mg/kg x3, weekly oral gavages, FIG. 27B
# Experimental: as §1
# A-B. Prophylactic vaccinations. […] C-D. Therapeutic settings.
# Mice were treated during 3 days with an antibiotic solution (ATB) containing ampicillin (1 mg/ml), streptomycin (5 mg/ml), colistin (1 mg/ml) (Sigma-Aldrich) and vancomycin (0.25 mg/ml) added in the sterile drinking water of mice. Antibiotic activity was confirmed by cultivating fecal pellets resuspended in BHI+15% glycerol at 0.1 g/ml on COS (BD Columbia Agar with 5% Sheep Blood) plates for 48 h at 37° C. in aerobic and anaerobic conditions. In the context of bacterial transplantation experiments, mice received 3 days of ATB before undergoing bacterial transplantation the next day by oral gavage using animal feeding needles.
# Syngeneic C57BL/6 mice were implanted with 0.8×10^6 MCA-205 WT sarcoma cells subcutaneously and treated intraperitoneally (i.p.) when tumors reached 20 to 35 mm^2 in size with CTX (100 mg/kg). Depending on the experimental setting, mice were injected once or 3 times at 1-week interval. Tumor size was routinely monitored every 3 days by means of a caliper.
# Enterococcus hirae 13144 were originally isolated from spleens of SPF mice treated with CTX in our laboratory.
# pTh17 cells = test: Induction of pTh17 cells in secondary lymphoid organs of CTX-treated animals; format: in vivo
# Source text: The reasons for these differences were however unknown, and the inventors pursued their research to identify the factor(s) responsible for the immunogenic properties of the murine strain EH13144 and the human clones IGR4, IGR7 and IGR11, in order to derive new molecules or microorganisms useful in the treatment of cancer.
# [3] = tested on: IFNg producing CD8^+ T (Tc1) cells; settings: naïve mice; cited from earlier work
# MCA-205 sarcoma [4] = test: MCA-205 sarcoma growth in FMT-treated mice, CTX plus oral gavage with E. hirae strains; format: in vivo; settings: for Anti-tumor effect: summary of the characteristics of the strains, with CTX, MCA205 sarcoma; for boost of CTX tumoricidal activity (MCA-205 tumor growth): dysbiotic FMT from BC patient, 3 cycles CTX 100 mg/kg, oral gavage 1.10^9 bacteria; for antitumor effect together with CTX (summary statements): MCA205 tumor model together with CTX
# Experimental: FIG. 1. Experimental setting. (A) Mice are treated with broad spectrum antibiotics (streptomycin, colistin, ampicillin and vancomycine) for 3 days before performing Fecal Microbiota Transplantation (FMT). 14 days post-FMT, MCA-205 sarcoma cell lines are inoculated in the right flank of mice (8.10^5 cells per mice). […] (B) Non FMT-treated SPF mice are used as control.
# FIG. 2. Dysbiosis by FMT BC patient 1: Effectiveness of E. hirae 13144 to restore CTX-mediated antitumor effects. […] (C) Tumor growth curves of MCA-205 sarcoma in FMT-treated mice after oral gavage with strain E. hirae 13144 or NaCl as control. 2 independent experiments are depicted. (D) Overall survival of FMT-treated, MCA-205 sarcoma bearing mice treated with CTX or NaCl after oral gavage with strain E. hirae 13144. A typical survival curve is depicted for six mice per group. (E) Concatenated data of tumor sizes at day 21 post-CTX from 2 independent experiments are shown.
# FIG. 3. […] (C) Tumor growth curves of MCA-205 sarcoma in FMT-treated mice after oral gavage with strain E. hirae 13144 or NaCl as control. 2 independent experiments are depicted. (D) Concatenated data of tumor sizes at day 21 post-CTX from 2 independent experiments are shown.
# FIG. 4. […] Tumor growth curves of MCA-205 sarcoma in FMT-treated mice after oral gavage with strain E. hirae 13144 (A), IGR1 (B) or NaCl as control. A typical curve is depicted for six mice per group. (C) Concatenated data of tumor sizes at day 17 post-CTX from 1-2 independent experiments are shown. (D). Comparaison of various strains of E. hirae for their capacity to control tumor growth. […] EH10815 fails to work and that may be related to a mutation residing in TMP2 (see below FIG. 13B).
# FIG. 5. […] (A) Tumor surface of MCA-205 sarcoma in FMT-treated mice after oral gavage with strain E. hirae 13144, IGR4, IGR7, Actinomycetes spp (Ao) and injected with 3 cycles of CTX (C) vs NaCl (N). Each dot is one mouse/tumor. (B) Tumor growth curves of MCA-205 sarcoma in SPF mice of the best group, means+SEM of tumor sizes at each time point and tumor sizes at sacrifice (C: CTX). Each dot is one mouse/tumor. Anova statistics indicating significant differences between CTX and the triple combination. (C) Tumor surface of MCA-205 sarcoma in FMT-treated mice after oral gavage with strains EH13144, IGR1, IGR11, Barnesiella or Akkermansia and injected with 3 cycles of CTX. Bacterial strains are used alive (V) or pasteurized (P). For pasteurization, bacteria are incubated 30 min at 70° C. and frozen at −80° C. at least 6 hours.
# FIG. 6. […] Tumor growth curves of MCA-205 sarcoma in FMT-treated mice after oral gavage with strain E. hirae 13144 alive (A), pasteurized (B) or NaCl as control. A typical curve is depicted for six mice per group. (C) Concatenated data of tumor sizes at day 17 post-CTX from 3 independent experiments are shown.
# BM-DC = test: IL-1B and IL-12 production by BM-DC; format: cell-based; settings: data not shown
# [5] = tested on: TMP1-specific CD8+ T cells; settings: FIG. 27H
# [6] = tested on: CD8+ T cells from HLA-A02*01 healthy volunteers; test: IFNγ ELISpot of CD8+ T cells from HLA-A2 healthy volunteers stimulated with TMP epitopes; format: cell-based, human; settings: Example 7, FIG. 24B
molecule,measurement,setting,value
"O=P1(N(CCCl)CCCl)NCCCO1 (stereo not shown) [CTX, cyclophosphamide, reference compound]",anticancer effect on PSMB4 knock-in (GSFARFRNI) MCA205 tumors,[1],not interfering
AMIEFIQGL,recognition of peptides by memory EH13144-induced Tc1 cells (IFNγ ELISpot),"splenic CD8+ T cells; Example 3, FIG. 13/32, DCs pulsed with 20 μg/ml peptides",highly recognized
"Enterococcus hirae 13344 [EH17 (13344), reference compound]",restoration of antibiotic-perturbed anticancer effects of CTX (MCA205 growth),MCA-205 sarcoma [2],reduced anticancer effect
same,capacity to induce pTh17 cells in secondary lymphoid organs,pTh17 cells,did not
same,immunogenic and oncomicrobiotic properties of the isolate,[3],no immunogenic nor oncomicrobiotic properties
same,memory Tc1 immune response (IFNγ spots) to BM-DC infected with EH isolates,"splenic CD8+ T cells; Example 2, FIG. 10, splenic CD8+ T cells after gavage + CTX, ELISPOT at 24 hrs",failed to do so
same,TC1 response against TMP1 in mice gavaged with the strain (IFNγ ELISpot),splenic CD8+ T cells,unable to do so
same,Anti-tumor effect,MCA-205 sarcoma [4],No
"Enterococcus hirae ATCC9790 [10815 (ATCC9790), reference compound]",restoration of antibiotic-perturbed anticancer effects of CTX (MCA205 growth),MCA-205 sarcoma [2],reduced anticancer effect
same,"recall responses to TMP1, TMP2 and Group7 after in vivo immunization with the strain",splenic CD8+ T cells,does not induce recall responses
same,TC1 response against TMP1 in mice gavaged with the strain (IFNγ ELISpot),splenic CD8+ T cells,unable to do so
same,boost of CTX tumoricidal activity (MCA-205 tumor growth),MCA-205 sarcoma [4],failed to efficiently boost CTX tumoricidal activity
same,boost of CTX tumoricidal activity (MCA-205 tumor growth),MCA-205 sarcoma [4]; listed as EH10815,did not mediate antitumor effects; also recorded: fails to work
same,Anti-tumor effect,MCA-205 sarcoma [4],No
Enterococcus hirae IGR1 [IGR 1],IL-1B and IL-12 production by BM-DC,BM-DC,as effective as EH13144
same,boost of CTX tumoricidal activity (MCA-205 tumor growth),MCA-205 sarcoma [4],not immunogenic; also recorded: failed to efficiently boost CTX tumoricidal activity
same,Anti-tumor effect,MCA-205 sarcoma [4],No
Enterococcus hirae IGR10 [IGR 10],boost of CTX tumoricidal activity (MCA-205 tumor growth),MCA-205 sarcoma [4],failed to efficiently boost CTX tumoricidal activity
same,Anti-tumor effect,MCA-205 sarcoma [4],No
Enterococcus hirae strain IGR4 [IGR 4],antitumor effect together with CTX (summary statements),MCA-205 sarcoma [4],effective at synergizing with CTX
same,boost of CTX tumoricidal activity (MCA-205 tumor growth),MCA-205 sarcoma [4],also immunogenic
same,boost of CTX tumoricidal activity (MCA-205 tumor growth),MCA-205 sarcoma [4]; listed as EH IGR 4,efficacy comparable to EH 13144
same,Anti-tumor effect,MCA-205 sarcoma [4],Yes
Enterococcus hirae strain IGR7 [IGR 7],proportion of splenic TMP1-specific CTLs after immunization with the strain (tetramer),[5],high proportion
same,restoration of antibiotic-perturbed anticancer effects of CTX (MCA205 growth),MCA-205 sarcoma [2],efficient
same,restoration of antibiotic-perturbed anticancer effects of CTX (MCA205 growth),MCA-205 sarcoma [2]; listed as E. hirae IGR7,as efficient as E. hirae 13144
same,capacity to induce pTh17 cells in secondary lymphoid organs,pTh17 cells,significant capacity to induce pTh17 cells
same,"recall responses to TMP1, TMP2 and Group7 after in vivo immunization with the strain",splenic CD8+ T cells,induce recall responses
same,antitumor effect together with CTX (summary statements),MCA-205 sarcoma [4],proved immunogenic
same,antitumor effect together with CTX (summary statements),MCA-205 sarcoma [4]; listed as clone IGR7,effective at synergizing with CTX
same,boost of CTX tumoricidal activity (MCA-205 tumor growth),MCA-205 sarcoma [4],also immunogenic
same,boost of CTX tumoricidal activity (MCA-205 tumor growth),MCA-205 sarcoma [4]; listed as EH IGR 7,efficacy comparable to EH 13144
same,Anti-tumor effect,MCA-205 sarcoma [4],Yes
Enterococcus hirae strain IGR11 [IGR 11],proportion of splenic TMP1-specific CTLs after immunization with the strain (tetramer),[5],high proportion
same,IL-1B and IL-12 production by BM-DC,BM-DC,as effective as EH13144
same,restoration of antibiotic-perturbed anticancer effects of CTX (MCA205 growth),MCA-205 sarcoma [2],efficient
same,restoration of antibiotic-perturbed anticancer effects of CTX (MCA205 growth),MCA-205 sarcoma [2]; listed as E. hirae IGR11,as efficient as E. hirae 13144
same,antitumor effect together with CTX (summary statements),MCA-205 sarcoma [4],efficient to mediate some tumoricidal activity
same,antitumor effect together with CTX (summary statements),MCA-205 sarcoma [4]; listed as clone IGR11,to some extent
same,boost of CTX tumoricidal activity (MCA-205 tumor growth),MCA-205 sarcoma [4],not immunogenic
same,Anti-tumor effect,MCA-205 sarcoma [4],Yes
ILVAITTTI,immunogenicity in humans of HLA-A0201-restricted epitopes,[6],immunogenicity of which has been experimentally confirmed
KLAKFASVV,immunogenicity in humans of HLA-A0201-restricted epitopes,[6],immunogenicity of which has been experimentally confirmed
KMVEILEEI,immunogenicity in humans of HLA-A0201-restricted epitopes,[6],immunogenicity of which has been experimentally confirmed
LLGIYQSYV,immunogenicity in humans of HLA-A0201-restricted epitopes,[6],immunogenicity of which has been experimentally confirmed
RLLKYDVGV,immunogenicity in humans of HLA-A0201-restricted epitopes,[6],immunogenicity of which has been experimentally confirmed
